Measurements published in patent US7053041B1, “Methods and compositions useful for inhibition of αvβ5mediated angiogenesis” (The Scripps Research Institute, priority 1996, dated 2006).

Assays:
Assay type in all cases: in vivo
[1] = test system: bFGF-induced angiogenesis; experiment: chick CAM assay, bFGF-induced angiogenesis, intravenous inhibitors
Description: (§1) Ten day old chick embryos were obtained from McIntyre Poultry (Lakeside, Calif.) and incubated at 37C with 60% humidity. A small hole was made through the shell at the end of the egg directly over the air sac with the use of a small crafts drill (Dremel, Division of Emerson Electric Co., Racine, Wis.). A second hole was drilled on the broad side of the egg in a region devoid of embryonic blood vessels determined previously by candling the egg. […] A 1.0 centimeter (cm)×1.0 cm square window was cut through the shell over the dropped CAM with the use of a small model grinding wheel (Dremel). The small window allowed direct access to the underlying CAM.
(§2) Angiogenesis was induced by placing a 5 millimeter (mm)×5 mm Whatman filter disk (Whatman Filter paper No. 1) saturated with Hanks Balanced Salt Solution (HBSS, GIBCO, Grand Island, N.Y.) or HBSS containing preselected cytokines at a preselected concentration, i.e. one to test the effect on angiogenesis, on the CAM of a 10 day chick embryo in a region devoid of blood vessels and the windows were later sealed with tape. Angiogenesis was monitored by photomicroscopy after 72 hours. CAMs were snap frozen then 6 μm cryostat sections were fixed with acetone and stained by immunofluorescence as described in Example 2B and 2C with 10 μg/ml of selected anti-integrin antibodies, including those directed against αvβ5 as described in Example 1.
(§3) Angiogenesis was first induced on 10 day old chick embryos by application of growth factor-saturated filter disks. Specifically, in the first assays, angiogenesis was induced by exposure to either bFGF or VEGF, each at a concentration of 150 ng/ml.
(§4) For application of growth factors, during the candling procedures, prominent blood vessels were selected and marks were made on the egg shell to indicate their positions. The holes were drilled in the shell, the CAMs were dropped and growth factor-saturated filter papers were then separately placed on the CAMs as described above. The windows were sealed with sterile tape and the embryos were replaced in the incubator.
(§5) Twenty four hours later, a second small window was carefully cut on the lateral side of the egg shell directly over prominent blood vessels selected previously. The outer egg shell was carefully removed leaving the embryonic membranes intact. The shell membrane was made transparent with a small drop of mineral oil (Perkin-Elmer Corp, Norwalk, Conn.) which allowed the blood vessels to be visualized easily. Then, phosphate buffered saline (PBS), 75 μg of purified sterile anti-integrin antibodies or 75 μg of synthetic peptides (cyclic peptide RGDfV, SEQ ID NO 4 and control cyclic peptide RADfV, SEQ ID NO 5) in PBS were injected into blood vessels apparent on the growth factor-induced CAMs. The windows were sealed with tape and the embryos were allowed to incubate until 72 hours.
The filter discs and representative surrounding CAM tissues were photographed in a stereomicroscope (FIGS. 3A–3F and FIGS. 5A–5F) and the mean angiogenic index +/− the standard error was determined for 12 CAMs per condition (FIGS. 4A–4B and FIGS. 6A–6B). Angiogenesis was scored for each embryo in a double blind manner by analyzing the number and extent of branching of blood vessels within the area of each disc. The scores ranged from 1 (low) to 4 (high) and the angiogenesis index was determined by subtracting a background of 1 from all data. […]

[2] = test system: VEGF-induced angiogenesis; experiment: chick CAM assay, VEGF-induced angiogenesis, intravenous inhibitors
Description: as §1, §2, §3, §4, §5
The filter discs and representative surrounding CAM tissues were photographed in a stereomicroscope (FIGS. 3A–3F and FIGS. 5A–5F) and the mean angiogenic index +/− the standard error was determined for 12 CAMs per condition (FIGS. 4A–4B and FIGS. 6A–6B). Angiogenesis was scored for each embryo in a double blind manner by analyzing the number and extent of branching of blood vessels within the area of each disc. The scores ranged from 1 (low) to 4 (high) and the angiogenesis index was determined by subtracting a background of 1 from all data.
In a further assay performed in the CAM model having VEGF-induced angiogenesis, 2 μg of peptides 85189 (SEQ ID NO 9) and the inert salt counterpart 121974 were separately intravenously injected as previously described. The effect of the peptides was assessed in comparison to that of control peptide 69601 (SEQ ID NO 5) and to untreated (labeled as NT) preparations.
The effect of the peptides of VEGF-induced angiogenesis is measured through a determination of the number of blood vessel branch points. […]

[3] = test system: TNF-α mediated angiogenesis; experiment: chick CAM assay, TNF-α-induced angiogenesis; conditions: TNF-α 1.0 μg/ml; antibodies 75 μg per embryo, calphostin C 100 nM
Description: (§6) The above growth factors (cytokines), including bFGF and VEGF, were separately applied at a concentration of 1.0 μg/ml to the 10 day old CAM model as previously described. PMA was used at a concentration of 20 ng/ml.
(§7) After 24 hours after growth factor treatment, the antibodies, LM609 and P1F6, or the protein kinase C (PKC) inhibitor, calphostin C, were separately provided to the CAM model, either by a single intravascular dose as described above or by topical administration as described below in the next example. For intravascular injections over the next 3 day consecutive period, the antibodies were used at a concentration of 75 μg per embryo and the calphostin C was at a dosage of 100 nM.
(§8) On day 13, filter discs and associated CAM tissue were dissected and analyzed for angiogenesis with a stereo microscope. Angiogenesis was scored in a double blind manner by analyzing the number and extent of branching of the blood vessels within the area of the discs. The scores ranged from low (1) to high (4). The angiogenesis index was determined by subtracting a background score of 1 from all data. Experiments were repeated 2–4 times with 5–6 embryos per condition.

[4] = test system: angiogenesis induced by TGF-α; experiment: chick CAM assay, TGF-α-induced angiogenesis; conditions: TGF-α 1.0 μg/ml; antibodies 75 μg per embryo, calphostin C 100 nM
Description: as §6, §7, §8

[5] = test system: angiogenesis induced by PMA; experiment: chick CAM assay, PMA-induced angiogenesis; conditions: PMA 20 ng/ml; antibodies 75 μg per embryo, calphostin C 100 nM
Description: as §6, §7, §8

[6] = test system: retinal vasculogenesis; experiment: newborn mouse model of retinal angiogenesis
Description: For the model, newborn mice were injected subcutaneously twice daily for four days starting from day 0 with the cyclic peptide RGDfV (SEQ ID NO 4) (also referred to as peptide 203) or the control peptide RADfV (SEQ ID NO 5). On postnatal day five, globes were removed and fixed in 4.0% paraformaldehyde (PFA) at room temperature.
To quantitate mouse retinal angiogenesis, the distance from the optic nerve head to the most distal point of a single vessel selected in each of six equal sectors around a twelve hour clock was measured. The mean distance was calculated and averaged with similar data obtained from an entire litter. To measure the total volume of retinal blood vessels, the entire specimen was scanned in 2.0 μm optical sections and stored digitally. The “seed” function in Bio-Rad's Lasersharp software was then used to threshold and count cubic pixels in each section. A macro was written to sum the volume of all sections and determine the value for all vascular structures.

calphostin C [reference compound]
effect on CAM angiogenesis in response to bFGF (angiogenesis index) ([1]; bFGF 1.0 μg/ml, antibodies 75 μg per embryo, calphostin C 100 nM): minimal effects
effect on CAM angiogenesis induced by VEGF (angiogenesis index) ([2]; VEGF 1.0 μg/ml, antibodies 75 μg per embryo, calphostin C 100 nM): blocked angiogenesis
effect on CAM angiogenesis in response to TNF-α (angiogenesis index) [3]: minimal effects
effect on CAM angiogenesis induced by TGF-α (angiogenesis index) [4]: blocked angiogenesis
effect on CAM angiogenesis induced by PMA (angiogenesis index) [5]: blocked angiogenesis

cyclo(Arg-Gly-Asp-D-Phe-Val) [compound 66203]
inhibition of bFGF-induced CAM angiogenesis ([1]; bFGF 150 ng/ml, 75 μg antibody or peptide intravenously, 72 hours): abolished angiogenesis
inhibition of VEGF-induced CAM angiogenesis ([2]; VEGF 150 ng/ml, 75 μg antibody or peptide intravenously, 72 hours): abolished angiogenesis
volume of retinal blood vessels compared with untreated newborn mice ([6]; five-day old treated animals): indistinguishable
inhibition of retinal vasculogenesis compared to untreated counterparts ([6]; newborn mice, s.c. twice daily for four days): ~100%
mean volume of retinal vessels ([6]; postnatal day five): 3.6×10^6 μm^3
inhibition of retinal vasculogenesis relative to control peptide (vessel growth in two dimensions) ([6]; s.c. twice daily for four days from day 0, postnatal day five, N=9): 44%
reduction in retinal vascular volume compared to controls ([6]; three dimensional analysis, postnatal day five): 78%
difference in vessel growth between untreated newborn mice and treated five-day old mice ([6]; two dimensions): No statistical difference
